Eight molecules from US3991204A, “Method of using benzopyrans as antiparasitic agents” (American Cyanamid Company, priority 1975, dated 1976) can be followed below.

The test system of test [1] is Trichostrongylus colubriformis. Put plainly: Evaluation (efficacy) test in experimentally inoculated sheep, Trichostrongylus colubriformis. The format is in vivo, Trichostrongylus colubriformis (host: lambs). The settings on record: intraruminal dose 50 mg/kg. How it is done:
(§1) Evaluation (Efficacy) Test in Sheep
(§2) Lambs are experimentally inoculated with Haemonchus contortus (H.c.), Trichostrongylus axei (T.a.), Ostertagia circumcincta (O.c) and Trichostrongylus colubriformis (T.c.) species. At patency of the parasites the lambs are treated with 50 mg/kg of body weight with the compound under test administered as an intraruminal injection in 0.2 percent agar. Three days post treatment treated lambs and similary inoculated controls are necropsied and examined for parasites. Percent efficacy is calculated by comparing the average worm burden in the treated group with the average worm burden in the control group.

Test [2] concerns Trichostrongylus colubriformis. As to the kind of experiment: Efficacy against naturally occurring parasitic infestation in sheep, Trichostrongylus colubriformis male. As to conditions: naturally infected sheep, single oral dose 100 mg/kg. The format is in vivo, Trichostrongylus colubriformis (host: lambs). How it is done: (§3) Efficacy of 3',4'-Dichloro-4-hydroxy-2-oxo-2H-1-benzopyran-3 -carboxanilideagainst Naturally Occurring Parasitic
(§4) Lambs naturally infected with a number of parasitic species are treated with 100 mg/kg of body weight with the compound under tested administration as a single oral dose. After treatment, 24 hour fecal outputs for 3 days are collected from each animal and examined for the passage of parasites. Three days post treatment the lambs are necropsied and examined for parasites. Percent efficacy is calculated using the formula: [formula]

A further test relates to Cooperia punctata. As to the kind of experiment: Efficacy against naturally occurring parasitic infestation in sheep, Cooperia punctata. It counts as in vivo, Cooperia punctata (host: lambs). As to conditions: naturally infected sheep, single oral dose 100 mg/kg. The protocol: as §3, §4
The next test has as its system Ascaris suum. Put plainly: Efficacy against Ascaris suum in mice (lung pathology and lung larvae versus controls). It counts as in vivo, Ascaris suum (host: Swiss Webster mice). Further details: key: Active; Inactive. The protocol:
(§5) Efficacy of 4-Hydroxy-2-oxo-2H-1-benzopyran-3-carboxanilide derivatives against various helminths in mice
(§6) Six weeks old Swiss Webster mice are orally inoculated with Nematospiroides dubius, Hymenolepis nana and Aspicularis tetraptera. Eighteen days postinoculation the mice are treated with the appropriate drug diet level for 7 days. For single oral dose administration the compound is thoroughly mixed with 0.1 percent agar and orally intubated at the required dosage 22 days postinfection. 10-15,000 Ascaris suum infective eggs are administered to mice after 1 day on diet medication or 3 days prior to single oral dose administration. Determination of efficacy is done by counting all the N. dubius in treated mice versus the control average. For H. nana and A. tetraptera the absence or presence of these parasites in treated mice is the criterior for determining activity. For A. suum activity the following criterion was used. Reduction or elimination of lung pathology and the total number of lung larvae from treated animals was compared to lung larvae recovered from controls.

For a further test, the system named is Nematospiroides dubius. As to the kind of experiment: Efficacy against Nematospiroides dubius in mice (worm count in treated mice versus control average). The settings on record: for inhibition in vivo at 0.05 % / inhibition in vivo at 0.1 %: po, 168 h; for inhibition in vivo at 0.05 %: drug diet 0.05% for 7 days; for inhibition in vivo at 0.1 %: drug diet 0.1% for 7 days. The format is in vivo, Nematospiroides dubius (host: Swiss Webster mice). Further details: key to % Eff. N.d. (class symbol): Active; Inactive. The protocol:
as §5, §6

The test system of the next test is Haemonchus contortus. Put plainly: Evaluation (efficacy) test in experimentally inoculated sheep, Haemonchus contortus. The format is in vivo, Haemonchus contortus (host: lambs). As to conditions: intraruminal dose 50 mg/kg. The protocol: as §1, §2
The test system of a further test is Ostertagia circumcincta. As to the kind of experiment: Evaluation (efficacy) test in experimentally inoculated sheep, Ostertagia circumcincta. It counts as in vivo, Ostertagia circumcincta (host: lambs). The settings on record: intraruminal dose 50 mg/kg. The protocol: as §1, §2
Another test concerns Aspicularis tetraptera. As to the kind of experiment: Efficacy against Aspicularis tetraptera in mice (absence or presence of parasites). The format is in vivo, Aspicularis tetraptera (host: Swiss Webster mice). Further details: key: Active; Inactive. The protocol: as §5, §6
A further test has as its system Hymenolepis nana. Put plainly: Efficacy against Hymenolepis nana in mice (absence or presence of parasites). The format is in vivo, Hymenolepis nana (host: Swiss Webster mice). On the set-up: key: Active; Inactive. How it is done:
as §5, §6

The test system of test [3] is Trichostrongylus colubriformis. As to the kind of experiment: Evaluation against Trichostrongylus colubriformis in the Mongolian gerbil. It counts as in vivo, Trichostrongylus colubriformis (host: Mongolian gerbil). How it is done: Evaluation of 3',4'-Dichloro-4-hydroxy-2-oxo-2H-1-benzopyran-3-carboxanilide against Trichlostrongylus colubriformis in the Mongolian Gerbil Monogolian gerbils are inoculated with 2000 T. colubriformis larvae each. Fourteen to 94 days post inoculation the gerbils are treated with the appropiate drug level diet for 6 days. For single oral dose administration the compound is thoroughly mixed with 0.1 percent agar and orally intubated at the required level. After treatment, 24 hour fecal outputs for 3 days are collected from each animal and examined for passage of parasites. Three days post treatment the gerbils are necropsied and examined for parasites. Percent efficacy is calculated using the formula: [formula]

Test [4] concerns Trichostrongylus vitrinus. Put plainly: Efficacy against naturally occurring parasitic infestation in sheep, Trichostrongylus vitrinus male. The format is in vivo, Trichostrongylus vitrinus (host: lambs). The settings on record: naturally infected sheep, single oral dose 100 mg/kg. How it is done:
as §3, §4

The subject of the next test is Bunostomum. Put plainly: Efficacy against naturally occurring parasitic infestation in sheep, Bunostomum. It counts as in vivo, Bunostomum (host: lambs). As to conditions: naturally infected sheep, single oral dose 100 mg/kg. The protocol: as §3, §4
The test system of the next test is Trichostrongylus axei. Put plainly: Evaluation (efficacy) test in experimentally inoculated sheep, Trichostrongylus axei. It counts as in vivo, Trichostrongylus axei (host: lambs). The settings on record: intraruminal dose 50 mg/kg. How it is done: as §1, §2
The mark [5] stands for this setting: Heligmosomoides polygyrus, read-out: % Eff. N.d.

Several values for one entry are separate records, joined by “and”; a condition that tells them apart may be missing. Equal values may be shown once.

In the case of `O=C(Nc1ccc(Cl)c(Cl)c1)c1c(O)c2ccccc2oc1=O` [Example 1, 3',4'-Dichloro-4-hydroxy-2-oxo-2H-1-benzopyran-3-carboxanilide], the “% Efficacy T.c.” value in [1] was found to be 35%. Also, in test [2], the “% Efficacy T.c. Male” value was 85% and 61%. In the test on Cooperia punctata, the “% Efficacy C.p.” value is given as 100%. Moreover, the A.s. activity result with Ascaris suum (drug diet 0.05% for 7 days) is on record as “i”; in the test on Ascaris suum (drug diet 0.1% for 7 days), “i”; in the test on Ascaris suum (single oral dose 100 mg/kg), “i”; with Ascaris suum (single oral dose 500 mg/kg), “A”; in the test with Ascaris suum (single oral dose 1000 mg/kg), “A”; with Ascaris suum (single oral dose 2000 mg/kg), “A”. The inhibition in vivo at 0.05 % in the test with Nematospiroides dubius (setting [5]) turned out to be 85%. The inhibition in vivo at 0.1 % with Nematospiroides dubius (setting [5]) is 100%. Besides, the inhibition in vivo at 2000 mg/kg with Nematospiroides dubius (Heligmosomoides polygyrus, single oral dose 2000 mg/kg, read-out: % Eff. N.d.) is 55%. The “% Eff. N.d. (class symbol)” value in the test on Nematospiroides dubius (single oral dose 100 mg/kg), with Nematospiroides dubius (single oral dose 500 mg/kg) and with Nematospiroides dubius (single oral dose 1000 mg/kg) was “i” throughout. Further, in the test with Haemonchus contortus, the “% Efficacy H.c.” value is given as 100%. For the same molecule, the “% Efficacy O.c.” value with Ostertagia circumcincta is 86%. Moreover, the A.t. activity entry with Aspicularis tetraptera (drug diet 0.1% for 7 days) is “A”; with Aspicularis tetraptera (single oral dose 100 mg/kg) it was “A”; with Aspicularis tetraptera (single oral dose 500 mg/kg), “A”; in the test with Aspicularis tetraptera (single oral dose 1000 mg/kg), “i”. The H.n. activity entry in the test with Hymenolepis nana (drug diet 0.05% for 7 days) is on record as “i”; in the test with Hymenolepis nana (drug diet 0.1% for 7 days) it was “A”; with Hymenolepis nana (single oral dose 100 mg/kg), “i”; with Hymenolepis nana (single oral dose 500 mg/kg), “i”; in the test on Hymenolepis nana (single oral dose 1000 mg/kg) it was “i”. The “% Efficacy” value in test [3] (0.05% drug in feed × 6 Days) was 82%; in test [3] (single oral dose 100 mg/kg), 40%; in [3] (single oral dose 500 mg/kg) it was 100%. The “% Efficacy T.v. Male” value in [4] is 100% and 79%. Also, the “% Efficacy Bun.” value in the test with Bunostomum is reported as 100%. Further, the “% Efficacy T.a.” value in the test with Trichostrongylus axei was 0%.

For `O=C(Nc1cccc(Cl)c1)c1c(O)c2ccccc2oc1=O` [Example 2], the A.s. activity entry in the test on Ascaris suum (drug diet 0.05% for 7 days) and in the test with Ascaris suum (drug diet 0.1% for 7 days) was “i” throughout. For the same molecule, the inhibition in vivo at 0.05 % in the test with Nematospiroides dubius (setting [5]) worked out at 46%. Also, the inhibition in vivo at 0.1 % in the test with Nematospiroides dubius (setting [5]) came out at 65%. The A.t. activity entry in the test on Aspicularis tetraptera (drug diet 0.05% for 7 days) was “i”; in the test with Aspicularis tetraptera (drug diet 0.1% for 7 days), “A”. Moreover, the values for the H.n. activity result with Hymenolepis nana (drug diet 0.05% for 7 days) and with Hymenolepis nana (drug diet 0.1% for 7 days) were “i” and “A”, respectively.

For the molecule `O=C(Nc1ccc(F)cc1)c1c(O)c2ccccc2oc1=O` [Example 3], the A.s. activity result in the test on Ascaris suum (drug diet 0.1% for 7 days) is “i”. The inhibition in vivo at 0.1 % with Nematospiroides dubius (setting [5]) is 54%. In addition, in the test with Aspicularis tetraptera (drug diet 0.1% for 7 days), the A.t. activity entry is given as “i”. The H.n. activity entry in the test on Hymenolepis nana (drug diet 0.1% for 7 days) is recorded as “A”.

For the molecule `O=C(Nc1cccc(F)c1)c1c(O)c2ccccc2oc1=O` [Example 4], the A.s. activity entry in the test with Ascaris suum (drug diet 0.1% for 7 days) is “i”. In addition, the inhibition in vivo at 0.1 % in the test with Nematospiroides dubius (setting [5]) is 77%. In addition, the A.t. activity result in the test on Aspicularis tetraptera (drug diet 0.1% for 7 days) is listed as “i”. Moreover, in the test on Hymenolepis nana (drug diet 0.1% for 7 days), the H.n. activity result is listed as “i”.

Take `O=C(Nc1ccccc1F)c1c(O)c2ccccc2oc1=O` [Example 5]: in the test with Ascaris suum (drug diet 0.1% for 7 days), the A.s. activity result was “i”. Besides, in the test with Nematospiroides dubius (setting [5]), the inhibition in vivo at 0.1 % amounted to 66%. Further, in the test on Aspicularis tetraptera (drug diet 0.1% for 7 days), the A.t. activity entry is “i”. Further, the H.n. activity result in the test with Hymenolepis nana (drug diet 0.1% for 7 days) was “i”.

For the molecule `O=C(Nc1ccc(F)cc1F)c1c(O)c2ccccc2oc1=O` [Example 6], the A.s. activity entry in the test on Ascaris suum (drug diet 0.1% for 7 days) was “i”. Further, the inhibition in vivo at 0.1 % in the test with Nematospiroides dubius (setting [5]) was determined as 94%. Besides, in the test on Aspicularis tetraptera (drug diet 0.1% for 7 days), the A.t. activity result is “A”. Moreover, in the test on Hymenolepis nana (drug diet 0.1% for 7 days), the H.n. activity entry is listed as “i”.

For the molecule `O=C(Nc1cc(F)ccc1F)c1c(O)c2ccccc2oc1=O` [Example 7], the A.s. activity result in the test on Ascaris suum (drug diet 0.1% for 7 days) was “i”. For the same molecule, in the test with Nematospiroides dubius (setting [5]), the inhibition in vivo at 0.1 % is 41%. In the test on Aspicularis tetraptera (drug diet 0.1% for 7 days), the A.t. activity entry is recorded as “i”. In addition, the H.n. activity result in the test on Hymenolepis nana (drug diet 0.1% for 7 days) was “i”.

Regarding `O=C(Nc1ccc(Cl)cc1Cl)c1c(O)c2ccccc2oc1=O` [Example 8], the A.s. activity entry in the test with Ascaris suum (drug diet 0.05% for 7 days) and with Ascaris suum (drug diet 0.1% for 7 days) was “i” each time. Moreover, in the test on Nematospiroides dubius (setting [5]), the inhibition in vivo at 0.05 % was found to be 94%. Also, the inhibition in vivo at 0.1 % in the test with Nematospiroides dubius (setting [5]) was determined as 100%. In addition, the A.t. activity result in the test on Aspicularis tetraptera (drug diet 0.05% for 7 days) and in the test on Aspicularis tetraptera (drug diet 0.1% for 7 days) was “A” each time. Besides, the H.n. activity entry in the test with Hymenolepis nana (drug diet 0.05% for 7 days) and in the test on Hymenolepis nana (drug diet 0.1% for 7 days) was “i” each time.
